Reference: US9062041B2 (Bayer Intellectual Property GmbH, priority 2011, dated 2015)

Tests used:
Format in all cases: cell-based
[1] = biological target: EP4 subtype of the human PGE2 receptor (Homo sapiens, UniProt P35408); experiment: cAMP antagonism test on the human EP4 receptor (HTRF cAMP detection); details: selectivity towards hEP4, IC50 measured by cAMP antagonism test
Method in brief: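 Cells expressing human EP4 preincubated 20 min at RT with compound (0.8 nM–16.5 μM), then stimulated with PGE2 (0.3 nM in 3× solution, with IBMX) 60 min at RT. After lysis, cAMP measured by HTRF competition (665/620 nm ratio); antagonism seen as rise in FRET signal.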

human PGD receptor = biological target: T1, human PGD receptor (Homo sapiens, UniProt Q13258); experiment: cAMP antagonism test on the human prostaglandin D receptor (HTRF cAMP detection); details: selectivity towards hDP, IC50 measured by cAMP antagonism test
T1 sequence (Q13258 1-359): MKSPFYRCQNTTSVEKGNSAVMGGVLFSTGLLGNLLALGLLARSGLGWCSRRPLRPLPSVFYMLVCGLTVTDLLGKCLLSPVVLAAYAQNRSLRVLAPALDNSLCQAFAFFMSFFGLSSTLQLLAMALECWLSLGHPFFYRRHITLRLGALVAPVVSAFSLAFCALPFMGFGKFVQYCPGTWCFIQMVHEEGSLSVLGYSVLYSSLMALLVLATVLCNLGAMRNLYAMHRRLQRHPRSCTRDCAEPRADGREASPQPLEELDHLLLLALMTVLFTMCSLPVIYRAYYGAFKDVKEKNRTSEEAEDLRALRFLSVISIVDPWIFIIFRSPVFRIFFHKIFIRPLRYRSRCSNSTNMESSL
Method in brief: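 Cells pre-mixed with cAMP-d2 were preincubated with compound (0.8 nM–16.5 μM) for 20 min at RT, then stimulated with 3× PGD2 solution (6 nM, in PBS-IBMX) for 30 min at RT. After lysis (20 min), HTRF read at 665/620 nm; antagonism seen as rise in FRET ratio.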

[2] = biological target: EP2 subtype of the human PGE2 receptor (Homo sapiens, UniProt P43116); experiment: cAMP antagonism test on the human EP2 receptor (HTRF cAMP detection); details: hEP2 receptor, read-out: Antagonism hEP2 IC50
Chain of EP2 subtype of the human PGE2 receptor (P43116 whole entry): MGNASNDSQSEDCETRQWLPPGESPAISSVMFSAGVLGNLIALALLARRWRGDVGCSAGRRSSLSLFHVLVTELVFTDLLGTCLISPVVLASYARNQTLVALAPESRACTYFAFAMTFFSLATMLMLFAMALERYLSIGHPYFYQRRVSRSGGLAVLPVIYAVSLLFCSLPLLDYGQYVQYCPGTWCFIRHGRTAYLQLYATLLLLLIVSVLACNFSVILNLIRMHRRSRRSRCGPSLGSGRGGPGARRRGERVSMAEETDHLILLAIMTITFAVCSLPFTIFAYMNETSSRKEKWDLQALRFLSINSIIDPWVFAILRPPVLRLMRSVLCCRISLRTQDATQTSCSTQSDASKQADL
Method in brief: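 Cells expressing human EP2 preincubated 20 min at RT with compound (0.8 nM–16.5 μM), then stimulated 60 min with PGE2 (3× solution 1.5 nM) in PBS-IBMX. After 20 min lysis, cAMP measured by competitive HTRF with cAMP-d2 and Eu cryptate anti-cAMP antibody (665/620 nm ratio).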

Chain of EP4 subtype of the human PGE2 receptor (P35408 whole entry): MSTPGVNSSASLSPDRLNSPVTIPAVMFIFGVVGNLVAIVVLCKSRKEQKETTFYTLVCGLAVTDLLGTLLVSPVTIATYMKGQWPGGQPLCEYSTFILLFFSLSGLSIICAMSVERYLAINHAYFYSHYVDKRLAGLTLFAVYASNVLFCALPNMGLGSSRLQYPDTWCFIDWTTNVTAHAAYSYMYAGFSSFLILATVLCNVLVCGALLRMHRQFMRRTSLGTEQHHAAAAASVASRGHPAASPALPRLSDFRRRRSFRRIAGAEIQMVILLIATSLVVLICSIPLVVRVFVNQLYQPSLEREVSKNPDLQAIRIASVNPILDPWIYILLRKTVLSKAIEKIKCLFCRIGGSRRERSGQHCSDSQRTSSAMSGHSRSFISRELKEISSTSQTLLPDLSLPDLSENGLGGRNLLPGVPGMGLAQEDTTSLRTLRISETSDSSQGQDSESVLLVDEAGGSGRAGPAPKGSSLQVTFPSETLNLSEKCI

Row | Selectivity hEP2/hEP4 [1] | Selectivity hEP2/hDP (human PGD receptor) | IC50 [2] [nM] | SMILES
1 | xxx (xxx > 100) | xxx (xxx > 100) | 7.79 | Cc1c(C(=O)NCCS(C)(=O)=O)ccc2nn(CC3CCN(C(=O)c4ccc(Oc5ccc(C(F)(F)F)cc5)cc4)CC3)cc12 [Example 245, N-(2-mesylethyl)-4-methyl-2-[(1-{4-[4-(trifluoromethyl)phenoxy]benzoyl}-piperidin-4-yl)methyl]-2H-indazol-5-carboxamide]
2 | xxx (xxx > 100) | xxx (xxx > 100) | 9.23 | Cc1c(C(=O)NCCC#N)ccc2nn(CC3CCN(C(=O)c4ccc(Oc5ccc(C(F)(F)F)cc5)cc4)CC3)cc12 [Example 246, N-(2-cyanoethyl)-4-methyl-2-[(1-{4-[4-(trifluoromethyl)phenoxy]benzoyl}piperidin-4-yl)methyl]-2H-indazol-5-carboxamide]
3 | xxx (xxx > 100) | xxx (xxx > 100) | 12.6 | Cc1c(C(=O)NCC#N)ccc2nn(CC3CCN(C(=O)c4ccc(Oc5ccc(C(F)(F)F)cc5)cc4)CC3)cc12 [Example 247, N-(cyanomethyl)-4-methyl-2-[(1-{4-[4-(trifluoromethyl)phenoxy]benzoyl}piperidin-4-yl)methyl]-2H-indazol-5-carboxamide]
4 | xxx (xxx > 100) | xxx (xxx > 100) | 30.6 | Cc1c(C(=O)NCC2CCC2)ccc2nn(CC3CCN(C(=O)c4ccc(Cl)cc4)CC3)cc12 [Example 250, 2-{[1-(4-chlorobenzoyl)piperidin-4-yl]methyl}-N-(cyclobutylmethyl)-4-methyl-2H-indazol-5-carboxamide]
5 | x (x: 1-10) | x (x: 1-10) | 3810 | Cc1c(C(=O)NCC(C)(C)C)ccc2nn(CC3CCN(C(=O)c4ccc(Cl)cc4)CC3)cc12 [Example 251, 2-{[1-(4-chlorobenzoyl)piperidin-4-yl]methyl}-N-(2,2-dimethylpropyl)-4-methyl-2H-indazol-5-carboxamide]
6 | xx (xx: 10-100) | xx (xx: 10-100) | 295 | Cc1c(C(=O)NCCO)ccc2nn(CC3CCN(C(=O)c4ccc(Cl)cc4)CC3)cc12 [Example 252, 2-{[1-(4-chlorobenzoyl)piperidin-4-yl]methyl}-N-(2-hydroxyethyl)-4-methyl-2H-indazol-5-carboxamide]
7 | xx (xx: 10-100) | xx (xx: 10-100) | 168 | Cc1c(C(=O)NCCCO)ccc2nn(CC3CCN(C(=O)c4ccc(Cl)cc4)CC3)cc12 [Example 253, 2-{[1-(4-chlorobenzoyl)piperidin-4-yl]methyl}-N-(3-hydroxypropyl)-4-methyl-2H-indazol-5-carboxamide]
8 | xxx (xxx > 100) | xxx (xxx > 100) | 55.2 | COCCNC(=O)c1ccc2nn(CC3CN(C(=O)c4ccc(OC(F)(F)F)cc4)C3)cc2c1OC [Example 254, 4-methoxy-N-(2-methoxyethyl)-2-({1-[4-(trifluoromethoxy)benzoyl]azetidin-3-yl}methyl)-2H-indazol-5-carboxamide]
9 | xxx (xxx > 100) | xxx (xxx > 100) | 83.5 | COCCNC(=O)c1ccc2nn(CC3CN(C(=O)c4ccc(C(F)(F)F)cc4F)C3)cc2c1OC [Example 255, 2-({1-[2-fluoro-4-(trifluoromethyl)benzoyl]azetidin-3-yl}methyl)-4-methoxy-N-(2-methoxyethyl)-2H-indazol-5-carboxamide]
10 | xxx (xxx > 100) | xxx (xxx > 100) | 102 | COCCNC(=O)c1ccc2nn(CC3CN(C(=O)c4ccc(Cl)cc4F)C3)cc2c1OC [Example 257, 2-{[1-(4-chloro-2-fluorobenzoyl)azetidin-3-yl]methyl}-4-methoxy-N-(2-methoxyethyl)-2H-indazol-5-carboxamide]
